Experimental data from ChEMBL document CHEMBL5441442, “ASAP - In vitro cardiotoxicity” (2024).

Key:
Format in all cases: toxicity, cell-based, Cricetulus griseus, CHO
[1] = target: NaV1.5 (sodium channel protein type 5 subunit alpha) (Homo sapiens, UniProt Q14524); assay: (§1) Compounds were solubilised to 10 mM in DMSO and diluted in HBPS to 30 mM. 6-Point concentration-response curves were generated using serial dilutions from the top test concentration. Electrophysiological recordings were made from a Chinese Hamster Ovary cell line stably expressing the full-length ion channel. Single cell ionic currents were measured in whole-cell configuration at room temperature. The internal solution for hNaV1.5 is buffered to pH 7.3, and the external solution is buffered to pH 7.4. The test pulse was applied according to voltage protocol. Compounds were incubated for 2 min to allow stabilization of the parameters. Concentration-response curves were generated by cumulative addition of compound with concentrations low to high. In all cases, steady-state inhibition was achieved before the next concentration of compound was added. To investigate any use-dependence, an 8-pulse voltage protocol is applied at a frequency of 3 Hz. Inhibition is compared at pulse 1 and pulse 8. Any difference in the potency of a compound at P8 versus P1 would be typical of use-dependent block. IC50 values or % inhibition at the top test concentration is obtained. The assay has been performed by Concept Life Sciences Ltd.; conditions: chinese hamster, CHO cells stably expressing full-length hNaV1.5, pH 7.3; top test concentration 30 uM
NaV1.5 (sodium channel protein type 5 subunit alpha), sequence (Q14524 whole entry): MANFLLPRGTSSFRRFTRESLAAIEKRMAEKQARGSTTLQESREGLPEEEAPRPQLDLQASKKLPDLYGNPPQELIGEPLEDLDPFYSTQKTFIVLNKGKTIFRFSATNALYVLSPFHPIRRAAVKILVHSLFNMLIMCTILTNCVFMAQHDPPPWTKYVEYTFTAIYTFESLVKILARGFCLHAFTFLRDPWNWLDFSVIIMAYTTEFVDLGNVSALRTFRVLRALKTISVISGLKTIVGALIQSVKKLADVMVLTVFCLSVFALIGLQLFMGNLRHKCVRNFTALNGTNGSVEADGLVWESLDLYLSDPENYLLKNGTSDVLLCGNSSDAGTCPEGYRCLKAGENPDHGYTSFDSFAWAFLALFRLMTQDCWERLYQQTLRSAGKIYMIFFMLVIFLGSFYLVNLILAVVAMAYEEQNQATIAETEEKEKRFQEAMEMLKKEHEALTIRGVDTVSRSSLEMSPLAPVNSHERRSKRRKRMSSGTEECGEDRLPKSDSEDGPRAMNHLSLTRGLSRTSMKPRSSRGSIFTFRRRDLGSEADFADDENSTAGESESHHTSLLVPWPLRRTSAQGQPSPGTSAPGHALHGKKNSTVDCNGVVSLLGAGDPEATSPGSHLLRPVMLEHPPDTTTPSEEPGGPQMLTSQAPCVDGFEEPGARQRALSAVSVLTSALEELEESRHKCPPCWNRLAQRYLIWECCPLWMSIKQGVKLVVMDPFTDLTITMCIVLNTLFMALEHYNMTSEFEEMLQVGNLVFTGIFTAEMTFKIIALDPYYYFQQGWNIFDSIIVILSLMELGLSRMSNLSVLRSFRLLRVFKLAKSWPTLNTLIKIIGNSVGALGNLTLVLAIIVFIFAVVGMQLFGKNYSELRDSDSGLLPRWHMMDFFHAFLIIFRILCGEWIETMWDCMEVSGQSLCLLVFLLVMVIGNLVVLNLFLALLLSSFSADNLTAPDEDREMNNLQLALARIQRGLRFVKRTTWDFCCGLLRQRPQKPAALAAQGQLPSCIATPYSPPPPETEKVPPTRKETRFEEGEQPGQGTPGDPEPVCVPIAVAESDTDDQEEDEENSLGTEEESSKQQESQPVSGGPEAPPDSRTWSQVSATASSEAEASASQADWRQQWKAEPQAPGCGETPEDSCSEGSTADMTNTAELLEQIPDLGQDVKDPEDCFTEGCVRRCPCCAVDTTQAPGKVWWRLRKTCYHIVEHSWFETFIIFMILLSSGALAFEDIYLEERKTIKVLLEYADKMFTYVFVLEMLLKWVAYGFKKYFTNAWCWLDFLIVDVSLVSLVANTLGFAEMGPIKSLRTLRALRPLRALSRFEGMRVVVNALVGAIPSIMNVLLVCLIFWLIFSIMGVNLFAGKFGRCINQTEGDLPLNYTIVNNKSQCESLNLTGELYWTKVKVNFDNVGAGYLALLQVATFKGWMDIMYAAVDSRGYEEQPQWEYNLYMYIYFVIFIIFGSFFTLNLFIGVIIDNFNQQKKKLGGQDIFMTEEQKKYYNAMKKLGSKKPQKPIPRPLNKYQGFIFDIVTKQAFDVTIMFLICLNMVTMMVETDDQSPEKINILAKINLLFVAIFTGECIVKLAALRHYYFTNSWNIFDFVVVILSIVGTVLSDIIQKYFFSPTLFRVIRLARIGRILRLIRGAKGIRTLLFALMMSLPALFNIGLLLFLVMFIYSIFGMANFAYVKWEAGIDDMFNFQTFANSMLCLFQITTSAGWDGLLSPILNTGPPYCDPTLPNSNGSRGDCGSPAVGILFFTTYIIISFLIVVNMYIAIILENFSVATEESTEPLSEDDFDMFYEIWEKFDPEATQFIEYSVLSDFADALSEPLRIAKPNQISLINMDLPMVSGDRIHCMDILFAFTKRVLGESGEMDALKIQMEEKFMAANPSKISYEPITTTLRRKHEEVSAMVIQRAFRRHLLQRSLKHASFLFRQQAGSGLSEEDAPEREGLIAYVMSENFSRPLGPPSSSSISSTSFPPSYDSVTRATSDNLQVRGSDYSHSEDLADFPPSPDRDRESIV

[2] = target: Sodium channel protein type 5 subunit alpha (Homo sapiens, UniProt Q14524); assay: as §1; conditions: for Inhibition: chinese hamster, cho, pH 7.3, 2 min, 2 min, top test concentration 30 uM
Sodium channel protein type 5 subunit alpha, sequence (Q14524 whole entry): as above

[3] = target: hERG (KCNH2) (Homo sapiens, UniProt Q12809); assay: as §1, with “recordings are” for “recordings were”, “currents are” for “currents were”, “for hERG” for “for hNaV1.5”, “added.” for “added. To investigate any use-dependence, an 8-pulse voltage protocol is applied at a frequency of 3 Hz. Inhibition is compared at pulse 1 and pulse 8. Any difference in the potency of a compound at P8 versus P1 would be typical of use-dependent block.”, “% of” for “%”, “at” for “at the”; conditions: chinese hamster, CHO cells stably expressing full-length hERG, pH 7.3; top test concentration 30 uM
[4] = target: Voltage-gated inwardly rectifying potassium channel KCNH2 (Homo sapiens, UniProt Q12809); assay: as above

SMILES	inhibition at 2 min [1] [%]	IC50 [2] [µM]	Inhibition [2] [%]	inhibition at 2 min [3] [%]	IC50 [4] [µM]	Inhibition ([4]; chinese hamster, cho, pH 7.3, 2 min, 2 min, top test concentration 30 uM) [%]
CC(C)[C@H](Nc1ncnc2[nH]ccc12)c1ccc2c(c1)S(=O)(=O)CCC2	19	> 30	29	39	> 30	–
C[C@H](C(=O)O)[C@@H](NC(=O)c1ncnc2[nH]ccc12)c1ccc(Br)cc1	18	> 30	16	28	> 30	–
COc1ccc([C@H](Cc2nnn[nH]2)NC(=O)c2ncnc3[nH]ccc23)cc1	9	> 30	8	27	> 30	–
CNC(=O)Cn1cc(-c2cc3c(N[C@@H](c4ccc5c(c4)S(=O)(=O)CCC5)C(C)C)ncnc3[nH]2)cn1	15	> 30	26	23	> 30	–
CNCc1cc(-c2cc3c(N[C@@H](c4ccc5c(c4)S(=O)(=O)CCC5)C(C)C)ncnc3[nH]2)co1	10	> 30	16	26	> 30	–
Cn1ncc(-c2cc3c(N[C@@H](c4ccc5c(n4)OCCO5)C(C)(C)C)ncnc3[nH]2)c1C#N	17	> 30	21	–	19.5	–
CC(C)[C@H](Nc1ncnc2[nH]c(-c3cnn(C)c3C#N)cc12)c1ccc2c(n1)OCCO2	33	> 30	35	–	11	–
CC(C)[C@@H](Nc1ncnc2[nH]c(-c3cnn(C)c3C#N)cc12)c1ccc2c(n1)OCCO2	27	> 30	25	–	10.1	–
CC(C)[C@@H](Nc1ncnc2[nH]c(C(=O)N[C@@H]3CCN(C)C3)cc12)c1ccc2c(c1)S(=O)(=O)CCC2	11	> 30	–	–	> 30	18
